The target in one experiment is T1, human IGF1R (Homo sapiens, UniProt P08069).
T1 construct: expressed in transfected cells; host or cells: R+ cells (R- mouse fibroblasts transfected with human IGF1R)
Briefly: Inhibition of insulin-like growth factor-1 receptor phosphorylation in R+ cells. In kind it is cell-based. The note with it: 30 nM IGF1, read-out: IGF cell class. Here is the method: This immunofluorescence end point cell assay measures the ability of a test compound to reduce the measured levels of IGF1R phosphorylation after IGF1 stimulation in R^+ cells. […] were derived by transfection of R^− mouse fibroblast cells with human IGF1R.
(+5% CO2) incubator for 30 minutes.
Following the compound treatment, the R^+ cells were stimulated with a final concentration of 30 nM IGF1 (Gropep 1M001) for 20 minutes at 37° C. […] Plates were incubated for 1 hour at room temperature. […] Additionally, in-house antibodies raised against phospho […] were also used at a suitable titre determined for each batch.
The plates were incubated at room temperature for one hour. […] After addition of 100 μl/well PBS the plates were sealed with a black seal.
The Green Fluorescent phospho IGF1R -associated signal in each well was measured using an Acumen Explorer HTS Reader (TTP Labtech Ltd., Cambridge). […] The instrument is a laser-scanning fluorescence microplate cytometer, which samples the well at regular intervals and uses threshold algorithms to identify all fluorescent intensities above the solution background without the need to generate and analyse an image. These fluorescent objects can be quantified and provide a measure of the phospho IGF1R levels in cells. Fluorescence dose response data obtained with each compound was exported into a suitable software package (such as Origin) to perform curve fitting analysis. Phospho-IGF1R levels in response to compound treatment versus stimulated and unstimulated controls were expressed as an IC50 value.

The next experiment addresses FGFR1 kinase (Homo sapiens, UniProt P11362). Briefly: Kinase assay (using Caliper technology). The note with it: FGFR1 kinase, Caliper; upper bound of bin; read-out: IC50. In kind it is biochemical. As for the experimental part:
To determine inhibition of FGFR activity, kinase assays were conducted using Caliper technology.
Kinase activity assays were performed in Greiner 384-well low volume plates, with a total reaction volume of 12ul per well. […] The substrate for each assay was a custom peptide with fluorescent tag (13 amino acids in length) the sequence of which was specific for FGFR1 kinase.
Compounds were serially diluted in 5% (v/v) DMSO, before being added to assay plates.
Assay plates were incubated at room temperature for 1.5 h, before the reaction was stopped with the addition of buffer [comprising: 100 mM HEPES—pH7.5, 0.033% Brij-35, 0.22% Caliper Coating Reagent #3, 88mM EDTA, 5% DMSO]. Stopped assay plates were then read using the Caliper LabChip® LC3000 (which uses microfludics to measure a shift in mobility between fluorescent labelled peptide and the FGFR1 kinase—phosphorylated form of this peptide).

In a further experiment the test system is Erk phosphorylation. The experiment in a line: Growth factor (bFGF) stimulated Erk phosphorylation in NIH 3T3 cells. The note with it: Mus musculus, NIH3T3, NIH 3T3 cells, 3 ng/ml bFGF; upper bound of bin.
The next experiment deals with T2, FGFR1 IIIc (Homo sapiens, UniProt P11362).
T2 construct: host or cells: Cos-1
T2 sequence (P11362 22-822): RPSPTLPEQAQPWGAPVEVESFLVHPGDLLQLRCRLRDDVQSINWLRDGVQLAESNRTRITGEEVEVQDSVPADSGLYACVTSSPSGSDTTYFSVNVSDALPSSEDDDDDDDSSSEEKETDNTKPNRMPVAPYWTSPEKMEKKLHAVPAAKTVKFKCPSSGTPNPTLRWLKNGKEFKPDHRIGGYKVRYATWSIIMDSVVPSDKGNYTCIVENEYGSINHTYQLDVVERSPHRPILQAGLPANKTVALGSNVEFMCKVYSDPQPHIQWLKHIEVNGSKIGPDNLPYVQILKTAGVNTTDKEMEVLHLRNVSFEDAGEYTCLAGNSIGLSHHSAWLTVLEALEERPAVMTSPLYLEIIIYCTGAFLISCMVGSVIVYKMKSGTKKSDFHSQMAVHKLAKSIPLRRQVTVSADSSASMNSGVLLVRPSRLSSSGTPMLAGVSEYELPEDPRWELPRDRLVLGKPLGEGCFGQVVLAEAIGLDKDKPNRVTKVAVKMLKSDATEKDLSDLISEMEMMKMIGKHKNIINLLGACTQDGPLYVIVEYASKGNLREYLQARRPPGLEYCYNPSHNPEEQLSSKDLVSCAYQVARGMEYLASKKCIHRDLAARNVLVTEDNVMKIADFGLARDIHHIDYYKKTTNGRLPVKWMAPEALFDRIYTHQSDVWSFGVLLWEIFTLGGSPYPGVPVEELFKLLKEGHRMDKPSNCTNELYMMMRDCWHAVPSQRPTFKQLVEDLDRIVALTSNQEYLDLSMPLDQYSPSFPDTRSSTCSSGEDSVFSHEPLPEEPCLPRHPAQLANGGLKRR
Briefly: Cell based inhibition of transiently expressed FGFR1 IIIc phosphorylation via use of ECHO technology (Cos-1 cells). The note with it: Cos-1 cells, phospho-FGFR1, ECHO dosing; upper bound of bin; read-out: IC50. Here is the method:
This assay is designed to detect inhibitors of transiently expressed FGFR1 phosphorylation by antibody staining of fixed cells detected using ArrayScan technology.
To undertake the assay, Cos-1 cells were harvested at 90-95% confluence for cell transfection. For each 96-well plate, 24μl Lipofectamine 2000 was added to 809 ul OptiMEM and incubated at room temperature for 5 minutes. […] Equal volumes of DNA and Lipofectamine 2000 were combined (DNA: Lipid=1:1.2 ratio) and incubated at room temperature for 20 minutes.
The harvested Cos-1 cells are counted using a coulter counter and diluted further with 1% FCS/DMEM to 2.5×10^5 cells/ml. For each 96-well, 8.33 ml cells were required. […] 70 μl of media was aspirated from the assay plate using the Quadra before the plate was transferred onto the ECHO 550. […] Compound transfer to the assay plate on the ECHO 550 was at concentration ranges 1)10 μM, 2) 3 μM, 3) 1 μM, 4) 0.3 μM, 5) 0.1 μM, 6) […].
The plates were gently tapped to mix compound in with the cell media and left to incubate at 37° C. with 5% CO2 for 1 hour.
Media was removed from the wells using vacuum aspiration; cells were fixed by adding 50 μl of 100% methanol to each well and incubated at room temperature for 20 minutes.
The plates were read on an Arrayscan (Cellomics).

The values that follow come from patent US20080004302A1, “Novel Compounds” (ASTRAZENECA AB, priority 2006, published 2008).

Chain of FGFR1 kinase (P11362 22-822): as above
T1 sequence (P08069 31-1367): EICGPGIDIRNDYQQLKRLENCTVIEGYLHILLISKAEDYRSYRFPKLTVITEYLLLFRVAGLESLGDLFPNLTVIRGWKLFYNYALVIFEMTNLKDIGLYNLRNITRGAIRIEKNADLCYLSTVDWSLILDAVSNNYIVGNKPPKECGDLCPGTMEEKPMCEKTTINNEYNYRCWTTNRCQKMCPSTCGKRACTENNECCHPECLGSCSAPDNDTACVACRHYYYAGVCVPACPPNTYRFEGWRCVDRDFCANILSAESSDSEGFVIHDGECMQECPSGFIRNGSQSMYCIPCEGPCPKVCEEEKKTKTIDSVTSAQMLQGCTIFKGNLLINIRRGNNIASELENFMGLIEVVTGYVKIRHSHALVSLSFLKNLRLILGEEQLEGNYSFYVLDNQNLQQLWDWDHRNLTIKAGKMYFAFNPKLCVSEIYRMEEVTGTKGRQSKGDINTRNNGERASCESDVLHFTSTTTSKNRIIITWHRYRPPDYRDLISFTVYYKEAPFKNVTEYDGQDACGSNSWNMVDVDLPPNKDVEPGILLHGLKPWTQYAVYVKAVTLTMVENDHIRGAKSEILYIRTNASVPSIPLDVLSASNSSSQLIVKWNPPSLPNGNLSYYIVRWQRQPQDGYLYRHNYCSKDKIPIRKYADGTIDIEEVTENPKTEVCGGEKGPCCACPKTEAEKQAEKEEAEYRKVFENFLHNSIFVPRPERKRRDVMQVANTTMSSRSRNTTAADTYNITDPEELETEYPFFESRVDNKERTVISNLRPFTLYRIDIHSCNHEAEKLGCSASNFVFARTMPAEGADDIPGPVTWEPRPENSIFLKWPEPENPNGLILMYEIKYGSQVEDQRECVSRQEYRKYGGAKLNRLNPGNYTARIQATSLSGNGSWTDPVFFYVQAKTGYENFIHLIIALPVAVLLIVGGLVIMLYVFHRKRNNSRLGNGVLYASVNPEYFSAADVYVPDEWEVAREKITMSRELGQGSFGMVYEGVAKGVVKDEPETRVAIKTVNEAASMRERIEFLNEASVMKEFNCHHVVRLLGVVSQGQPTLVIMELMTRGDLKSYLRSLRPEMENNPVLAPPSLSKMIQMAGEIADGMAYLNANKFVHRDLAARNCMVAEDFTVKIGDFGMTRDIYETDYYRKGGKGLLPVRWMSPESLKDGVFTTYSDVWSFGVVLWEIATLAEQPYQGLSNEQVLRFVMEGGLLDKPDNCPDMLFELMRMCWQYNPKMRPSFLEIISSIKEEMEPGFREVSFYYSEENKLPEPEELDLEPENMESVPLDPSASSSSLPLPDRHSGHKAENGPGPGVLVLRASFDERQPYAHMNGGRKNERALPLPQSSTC

For the molecule `Cc1cc(CNc2nccc(Nc3cc(OCc4cccc(C(=O)N5CCOCC5)c4)[nH]n3)n2)on1` [Example 90, [3-[[5-[[2-[(3-methyl1,2-oxazol-5-yl)methylamino]pyrimidin-4-yl]amino]-1H-pyrazol-3-yl]oxymethyl]phenyl]-morpholin-4-yl-methanone], the IC50 at human IGF1R was more than 10 µM; at FGFR1 kinase, less than 10 µM; with Erk phosphorylation it was less than 10 µM.
With `Cc1cc(CNc2nccc(Nc3cc(CCc4nc(-c5ccccc5)no4)[nH]n3)n2)on1` [Example 106, N-[(3-methyl1,2-oxazol-5-yl)methyl]-N′-[5-[2-(3-phenyl-1,2,4-oxadiazol-5-yl)ethyl]-2H-pyrazol-3-yl]pyrimidine-2,4-diamine], the IC50 is 1 to 10 µM at human IGF1R, less than 1 µM at FGFR1 kinase and less than 1 µM in the experiment with Erk phosphorylation.
In the experiment on Erk phosphorylation, `CCOC(=O)c1cc(CNc2nccc(Nc3cc(OC(C)C)n[nH]3)n2)on1` [Example 77, Ethyl 5-[[[4-[(5-propan-2-yloxy-2H-pyrazol-3-yl)amino]pyrimidin-2-yl]amino]methyl]1,2-oxazole-3-carboxylate] had an IC50 of less than 1 µM.
Regarding `CC(C)Oc1cc(Nc2ccnc(NCc3cc(C(=O)N(C)C)no3)n2)[nH]n1` [Example 80, N,N-dimethyl-5-[[[4-[(5-propan-2-yloxy-2H-pyrazol-3-yl)amino]pyrimidin-2-yl]amino]methyl]1,2-oxazole-3-carboxamide], the IC50 at FGFR1 kinase is less than 1 µM; with Erk phosphorylation it was less than 10 µM.
The corresponding values for `CC(C)Oc1cc(Nc2ccnc(NCc3cc(-c4cncnc4)no3)n2)n[nH]1` [Example 81, N′-(5-propan-2-yloxy-2H-pyrazol-3-yl)-N-[(3-pyrimidin-5-yl1,2-oxazol-5-yl)methyl]pyrimidine-2,4-diamine] are less than 10 µM and less than 10 µM.
In the case of `COCC(C)Oc1cc(Nc2ccnc(NCc3cc(C4CC4)no3)n2)n[nH]1` (stereo not drawn) [Example 76, N-[(3-cyclopropyl-1,2-oxazol-5-yl)methyl]-N′-[5-(1-methoxypropan-2-yloxy)-1H-pyrazol-3-yl]pyrimidine-2,4-diamine], the IC50 was more than 10 µM on human IGF1R and less than 1 µM in the experiment on Erk phosphorylation.
With `CC(C)Oc1cc(Nc2ccnc(NCc3cc(C4CCOC4)no3)n2)[nH]n1` (stereo not drawn) [Example 83, N-[[3-(oxolan-3-yl)1,2-oxazol-5-yl]methyl]-N′-(5-propan-2-yloxy-2H-pyrazol-3-yl)pyrimidine-2,4-diamine], the values for the IC50 at FGFR1 kinase and in the experiment on Erk phosphorylation were less than 1 µM and less than 10 µM, respectively.
`NC(=O)c1cc(CNc2nccc(Nc3cc(CCc4ccccc4)n[nH]3)n2)on1` [Example 50, 5-[[[4-[(5-phenethyl-2H-pyrazol-3-yl)amino]pyrimidin-2-yl]amino]methyl]-1,2-oxazole-3-carboxamide]: the figures for the IC50 on human IGF1R, on FGFR1 kinase and at FGFR1 IIIc were more than 10 µM, less than 1 µM and less than 10 µM, respectively.
For `CC(C)Oc1cc(Nc2ccnc(NCc3cc(C4CCOCC4)no3)n2)[nH]n1` [Example 85, N-[[3-(oxan-4-yl)1,2-oxazol-5-yl]methyl]-N′-(5-propan-2-yloxy-2H-pyrazol-3-yl)pyrimidine-2,4-diamine], the IC50 at FGFR1 kinase and in the experiment on Erk phosphorylation was less than 10 µM each time.
Take `CCOc1cc(Nc2ccnc(NCc3cc(C)no3)n2)n[nH]1` [Example 86, N′-(5-ethoxy-1H-pyrazol-3-yl)-N-[(3-methyl1,2-oxazol-5-yl)methyl]pyrimidine-2,4-diamine]: the IC50 is less than 0.2 µM at FGFR1 kinase and less than 1 µM with Erk phosphorylation.
The corresponding values for `Cc1cc(CNc2nccc(Nc3cc(OCc4cccc(C(=O)O)c4)[nH]n3)n2)on1` [Example 98, 3-[[5-[[2-[(3-methyl1,2-oxazol-5-yl)methylamino]pyrimidin-4-yl]amino]-1H-pyrazol-3-yl]oxymethyl]benzoic acid] are less than 10 µM and less than 10 µM.
For `COc1ccc(CCc2cc(Nc3ccnc(NCc4cc(-c5ncccn5)no4)n3)n[nH]2)cc1` [Example 32, N′-[5-[2-(4-methoxyphenyl)ethyl]-2H-pyrazol-3-yl]-N-[(3-pyrimidin-2-yl-1,2-oxazol-5-yl)methyl]pyrimidine-2,4-diamine], the IC50 on human IGF1R was 1 to 10 µM; on FGFR1 kinase, less than 1 µM; at FGFR1 IIIc, less than 1 µM.
As to `COCCCc1cc(Nc2ccnc(NCc3cc(C4CCC4)no3)n2)n[nH]1` [Example 23, N-[(3-Cyclobutyl1,2-oxazol-5-yl)methyl]-N′-[5-(3-methoxypropyl)-1H-pyrazol-3-yl]pyrimidine-2,4-diamine], the IC50 on FGFR1 kinase and in the experiment on Erk phosphorylation was less than 1 µM each time.
As for `NC(=O)c1cc(CNc2nccc(Nc3cc(CCc4cccc(OCC5CC5)c4)[nH]n3)n2)on1` [Example 123, 5-[[[4-[[5-[2-[3-(cyclopropylmethoxy)phenyl]ethyl]-1H-pyrazol-3-yl]amino]pyrimidin-2-yl]amino]methyl]-1,2-oxazole-3-carboxamide], the IC50 at FGFR1 kinase is less than 1 µM; on FGFR1 IIIc it was less than 10 µM.
For `COc1cc(Cl)cc(CCc2cc(Nc3ccnc(NCc4cc(C(N)=O)no4)n3)[nH]n2)c1` [Example 126, 5-[[[4-[[5-[2-(3-chloro-5-methoxy-phenyl)ethyl]-2H-pyrazol-3-yl]amino]pyrimidin-2-yl]amino]methyl]-1,2-oxazole-3-carboxamide] the same measures were less than 0.2 µM and less than 0.2 µM.
The corresponding values for `COc1cc(COc2cc(Nc3ccnc(NCc4cc(C)no4)n3)n[nH]2)c(F)cn1` [Example 135, N′-[5-[(5-fluoro-2-methoxy-pyridin-4-yl)methoxy]-1H-pyrazol-3-yl]-N-[(3-methyl-1,2-oxazol-5-yl)methyl]pyrimidine-2,4-diamine] are less than 0.2 µM and less than 1 µM.
For `COc1cncc(CCc2cc(Nc3ccnc(NCc4cc(C)no4)n3)n[nH]2)c1` [Example 138, N′-[5-[2-(5-methoxypyridin-3-yl)ethyl]-1H-pyrazol-3-yl]-N-[(3-methyl-1,2-oxazol-5-yl)methyl]pyrimidine-2,4-diamine] the same measures were less than 1 µM and less than 10 µM.
As for `Cc1cc(CNc2nccc(Nc3cc(OCCOc4ccccc4)[nH]n3)n2)on1` [Example 101, N-[(3-methyl1,2-oxazol-5-yl)methyl]-N′-[5-(2-phenoxyethoxy)-2H-pyrazol-3-yl]pyrimidine-2,4-diamine], the IC50 on human IGF1R is more than 10 µM; at FGFR1 kinase, less than 1 µM; at FGFR1 IIIc it was less than 1 µM.
Regarding `NC(=O)c1cc(CNc2nccc(Nc3cc(CCc4ccco4)n[nH]3)n2)on1` [Example 112, 5-[[[4-[[5-[2-(2-furyl)ethyl]-2H-pyrazol-3-yl]amino]pyrimidin-2-yl]amino]methyl]1,2-oxazole-3-carboxamide], the IC50 at FGFR1 kinase is less than 0.2 µM; in the experiment with Erk phosphorylation, less than 10 µM.
With `NC(=O)c1cc(CNc2nccc(Nc3cc(COc4ccccc4)n[nH]3)n2)on1` [Example 36, 5-[[[4-[[5-(phenoxymethyl)-2H-pyrazol-3-yl]amino]pyrimidin-2-yl]amino]methyl]1,2-oxazole-3-carboxamide], the IC50 is more than 10 µM at human IGF1R, less than 10 µM at FGFR1 kinase and less than 30 µM on FGFR1 IIIc.
